Test results as given in patent publication US20100209436A1, “METHOD FOR TREATING DISEASES RELATED TO MITOCHONDRIAL DYSFUNCTION” (priority 2007, published 2010).
Entries after “also recorded” stand apart in the source; their conditions may differ.

Columns and labels:
Format in all cases: cell-based, human
[1] = tested on: HeLa cells; test: Staurosporine-induced apoptosis: mitochondrial fragmentation, cytochrome c release, OPA1 isoforms; conditions: 1 μM staurosporine
Method: HeLa cells were treated with 1 μM staurosporine for the indicated time periods, stained with MitoTracker (red) and with cytochrome c antibodies (green).
b, Cells were classified. Tubular, at least one mitochondrial tubule of 5 μm or more; intermediate, at least one between 0.5 and 5 μm but none more than 5 μm; fragmented, none of more than 0.5 μm in length. A representative experiment out of three is shown.
c, Cells were classified for cytochrome c release by immunostaining. Not released, completely colocalised with MitoTracker; intermediate, partly co-localised with MitoTracker; and released, not co-localised with MitoTracker.
d, OPA1 protein isoforms were determined by western blot analysis of total cell extracts. Total cell extracts (C) and isolated mitochondria (M) from untreated HeLa cells were used as controls.
(§1) Live cells were fluorescently labeled with MitoTracker® Red CMXRos (Molecular probes, USA) for mitochondria or with 4′,6-diamidino-2-phenylindole dihydrochloride (DAPI; Molecular probes, USA) for the nucleus, subsequently fixed, and permeabilised. Immunostaining was carried out with mouse anti-cytochrome c monoclonal antibody (clone 6H2.B4; BD Biosciences) and chicken anti-GFP antibody (Ayes Lab Inc., USA). The following secondary antibodies conjugated to fluorescent dyes were used: Alexa Fluor® 488 anti-mouse IgG (H+L) (Molecular probes, USA), Cy3-conjugated anti-mouse IgG and Fluorescein (FITC)-conjugated anti-chicken IgG (Jackson Immunoresearch, USA). Cells were mounted with Prolong® Gold antifade reagent (Molecular probes, USA). All treatments were done according to the manufacturers' instructions. Mitochondrial morphology was analysed by confocal microscopy using a Zeiss LSM 510 (Carl Zeiss Microscopy, Jena, Germany) equipped with a 63× objective. For all imaging, 512×512 pixel images of single confocal planes were acquired and processed with the Bitplane Imaris 4 software. This technique was particularly employed for FIGS. 5 to 7 and 9 and the corresponding examples.

[2] = tested on: OPA1 processing in HeLa cells; test: Protease inhibitors on uncoupler-induced conversion of larger OPA1 isoforms to smaller isoforms; conditions: HeLa cells preincubated 10 min with inhibitor, then CCCP 25 min
Method: a, The protease inhibitor o-phenanthroline (o-Phe) and partially DCI (3,4-Dichloroisocoumarin), but not phenylmethylsulphonylfluoride (PMSF) block uncoupler induced conversion of larger OPA1 isoforms to smaller isoforms. HeLa cells were preincubated for 10 min with or without the protease inhibitors at the indicated concentration before CCCP (20 μM) was added. Cells were further incubated for 25 min before they were harvested, lysed in loading buffer, loaded on a SDS-PAGE, and immunoblotted with OPA1 antibodies.

[3] = tested on: OPA1 isoforms in HeLa cells; test: Ratios of OPA1 isoforms by western blot densitometry, uncoupler experiment
Method: (§2) a, HeLa cells and human fibroblasts were treated with CCCP (20 μM) for 6 h and total cell extracts were subjected to western blotting with OPA1 antibodies. b-d, Cells were treated or not (Control) with CCCP (20 μM) for 30 min, washed, and incubated further with medium lacking CCCP for the indicated time periods or CCCP (20 μM) was left for 6 h. In parallel, these experiments were performed in the presence of cycloheximide (CHX; 175 μg/ml). Cells were stained with MitoTracker (red) and with cytochrome c antibodies (green).
Cell pellets were lysed in Lämmli-buffer 1× and heated for 5 min at 95° C. Samples equivalent to ˜10^6 cells were loaded on a 10% acrylamid gel (12 cm high×16 cm wide plates separated by 1.5 mm thick spacers). Gels were run for 3.5 hours at constant 30 mA or until the 37 kD band of the BioRad Precision Plus Protein standard reaches the bottom of the gel. The proteins were transferred to a nitrocellulose membrane by semi-dry blotting for 1.5 hours at 200 mA using Tris/glycine buffer. The membrane was incubated in TBS buffer containing 5% non fat milk powder for 30 min. The membrane was then incubated in TBS buffer containing 5% non fat milk powder and affinity purified rabbit OPA1 antibodies (raised against the C-terminal peptide of OPA1: […] (SEQ ID No: 30)) diluted 1:500 for 1 hour. After three rapid washes to remove the primary antibody in excess, the membrane was further incubated for 1 hour in TBS containing 5% non fat milk powder and secondary antibodies anti rabbit conjugated to HRP (horseradish peroxidase) diluted 1:10,000 (BioRad). The membrane was then washed in TBS, once rapidly, and four more times for 5 min each. ECL reagent (enhanced chemoluminescence reagent) was used to reveal the different OPA1 isoform bands on the membrane. Expositions of 1 to 2 min were usually sufficient to detect all OPA1 forms. The compositions of the buffers and gels to be employed are as follows.
From the results of the below described uncoupler experiments using HeLa cells (Example 9; FIG. 9a), the ratio of the relative amount of various OPA1 isoforms was determined. For this purpose, total protein extracts were separated by SDS-PAGE and immunoblotted using an antibody raised against the C-terminus of OPA1. The western blot was scanned and densitometrically analysed using standard imaging software. The intensity of each band was determined and the background intensity was subtracted.

[4] = tested on: OPA1 isoforms in HeLa cells or fibroblasts; test: Uncoupler experiments: OPA1 isoform pattern by western blot; conditions: CCCP 20 μM 6 h
Method: as §2
d, OPA1 isoforms by western blot analysis. Extracts of untreated cells (C) and of cells treated for 6 h with CHX alone (+CHX 6 h) were used as controls.
It was further observed whether dissipation of the membrane potential is sufficient to trigger changes in abundance of OPA1 isoforms and fragmentation of mitochondria. […] Proteolytic processing occurs within mitochondria as shown by cellular fractionation experiments (FIG. 10c). This is specific for OPA1 since degradation of other mitochondrial proteins is not observed (FIG. 10c). Fragmentation of mitochondria occurred rapidly within 15 to 30 min after addition of CCCP (FIG. 9bc). Processing of OPA1 took place within the same narrow time frame (FIG. 9d). Impairment of fusion of mitochondria may therefore be due to rapid inactivation of OPA1 by proteolysis of large isoforms. […]

[5] = tested on: HeLa cells; test: Uncoupler experiments: mitochondrial morphology and cytochrome c by confocal fluorescence microscopy
Method: b, Quantification of mitochondrial morphology in cells: Tubular, at least one mitochondrial tubule of 5 μm or more; intermediate, at least one between 0.5 and 5 μm but none more than 5 μm; fragmented, none of more than 0.5 μm in length. Error bars represent standard deviation of five slides evaluated.
as §2, §1

[6] = tested on: OPA1 isoforms in HeLa cells; test: Pulse-chase experiment of OPA1 isoforms; conditions: 20 μM CCCP for 1 hour during chase
Method: HeLa cells were subjected to radioactive labeling of newly synthesized proteins. After labeling cells were washed, incubated for the indicated time in the absence of radiolabeled amino acids (chase) either in the presence or the absence of CCCP (20 μM). Cells were lysed at indicated times of chase and subjected to immunoprecipitation with antibodies raised against OPA1. Elution fractions were analyzed by digital autoradiography (top panel) and the same membrane was subjected to western blot analysis using OPA1 antibodies (bottom panel). The different OPA1 isoforms are indicated by arrows and named L1-, L2-, S3-, S4- and S5-OPA1.
The large OPA1 isoforms l-OPA1#1 and l-OPA1#2 are converted to the small OPA1 isoforms s-OPA1#3, s-OPA1#4 and/or s-OPA1#5. […] Then cells were washed 3 times with PBS and 1 ml fresh DMEM medium +10% FCS without radioactive methione (chase) was added. Cells were either treated with 20 μM CCCP for 1 hour or not. OPA1 was immunoprecipitated using an antibody raised against the C-terminus of OPA1 and OPA1 was detected by autoradiography and by western-blotting after SDS-PAGE. […] Accordingly, it can be concluded that l-OPA1 isoforms are actually converted to s-OPA1 isofoms, in particular towards s-OPA1#5.

[7] = HeLa +CCCP (20 μM, 6 h), densitometry of western blot

In the case of `CN[C@@H]1C[C@H]2O[C@@](C)([C@@H]1OC)n1c3ccccc3c3c4c(c5c6ccccc6n2c5c31)C(=O)NC4` [staurosporine], the “time to fragmentation of mitochondria” value [1] is reported as 2 to 3 h, the “cells that released cytochrome c” value ([1]; only after 5-6 h) is reported as “more than 50%” and the “change of OPA1 isoforms” value ([1]; western blot) is reported as “disappearance of the two largest OPA1 isoforms”.
In the case of `c1cnc2c(c1)ccc1cccnc12` [o-phenanthroline], the “block of uncoupler (CCCP 20 μM) induced proteolytic processing of OPA1” value (from here on “block of uncoupler”) [2] is reported as “block; also recorded: (at least partially) blocked” and the “block of uncoupler” value ([2]; listed as ortho-phenanthroline) is reported as “inhibited”.
`N#CC(C#N)=NNc1cccc(Cl)c1` [CCCP, carbonyl cyanide 3-chlorophenylhydrazone] was tested, and the “OPA1#3 + #4 + #5/ all bands %” value [3, 7] was 93.0%, the “OPA1#3 + #5/ all bands %” value [3, 7] was 64.8% and the “OPA1#3/ all bands %” value [3, 7] was 19.2%. For the same compound, the “OPA1#4/ all bands %” value [3, 7] was 28.2%, the “OPA1#5/ all bands %” value [3, 7] was 45.6% and the “fold increase of OPA1#3 + #4 + #5/ all bands” value ([3]; HeLa +CCCP versus HeLa −CCCP) was 2.0 fold. The “fold increase of OPA1#3 + #5/ all bands” value ([3]; HeLa +CCCP versus HeLa −CCCP) was 3.2 fold, the “fold increase of OPA1#3/ all bands” value ([3]; HeLa +CCCP versus HeLa −CCCP) was 1.9 fold and the “fold increase of OPA1#4/ all bands” value ([3]; HeLa +CCCP versus HeLa −CCCP) was 1.0 fold. The “fold increase of OPA1#5/ all bands” value ([3]; HeLa +CCCP versus HeLa −CCCP) was 4.4 fold, the “change of OPA1 isoform pattern” value [4] was “dramatic shift of OPA1 isoforms towards the smaller isoforms” and the “time to fragmentation of mitochondria after addition” value ([5]; CCCP 20 μM) was 15 to 30 min. For the same compound, the “mitochondrial morphology upon removal of the uncoupler” value ([5]; CCCP 20 μM 30 min, then washed) was “normal mitochondrial morphology was recovered”, the cytochrome c release ([5]; CCCP treatment) was “not accompanied by cytochrome c release” and the “change of OPA1 isoforms in pulse-chase (autoradiography and western blot)” value [6] was “shift from the large isoforms to the short isoforms”.
For `C[C@@H]1C[C@@H]([C@H](O)CC2CC(=O)NC(=O)C2)C(=O)[C@@H](C)C1` [cycloheximide], the “recovery of tubular mitochondrial network and reappearance of large OPA1 isoforms after CCCP removal” value ([5]; CHX 175 μg/ml) was “impaired” and the “effect on uncoupler-induced fragmentation and OPA1 processing” value ([5]; CHX 175 μg/ml with CCCP 20 μM) was “did not interfere”.
With `O=S(=O)(F)Cc1ccccc1` [PMSF, phenylmethylsulphonylfluoride] the “block of uncoupler” value [2] was “not”.
In the case of `O=c1oc(Cl)c(Cl)c2ccccc12` [DCI, 3,4-Dichloroisocoumarin], the “block of uncoupler” value [2] is reported as “(at least partially) blocked”.
